Data published in paper PMC2845915 (Bioconjugate chemistry, 2010).

Experiments:
human A1AR = molecular target: T1, human A1AR (Homo sapiens, UniProt P30542); details: at 10 μM, ref Tosh et al. ([15], [21]) and Melman et al. ([14]); cited from earlier work
T1 sequence (P30542 1-326): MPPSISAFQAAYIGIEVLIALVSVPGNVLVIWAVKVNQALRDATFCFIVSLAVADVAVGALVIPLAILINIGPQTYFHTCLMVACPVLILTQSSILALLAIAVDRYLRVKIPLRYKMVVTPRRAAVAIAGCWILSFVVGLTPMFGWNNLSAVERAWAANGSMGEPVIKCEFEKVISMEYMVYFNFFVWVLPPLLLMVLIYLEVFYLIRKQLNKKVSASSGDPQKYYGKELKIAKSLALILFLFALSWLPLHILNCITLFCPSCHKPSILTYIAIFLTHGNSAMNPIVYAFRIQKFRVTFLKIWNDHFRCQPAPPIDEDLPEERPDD

human A2AAR = human A2AAR (Homo sapiens, UniProt P29274); details: read-out: Affinity (Ki) A2 (A2A), [3H]CGS21680, HEK293, ref Tosh et al. ([15], [21]) and Melman et al. ([14]); cited from earlier work
human A2AAR, sequence (P29274 whole entry): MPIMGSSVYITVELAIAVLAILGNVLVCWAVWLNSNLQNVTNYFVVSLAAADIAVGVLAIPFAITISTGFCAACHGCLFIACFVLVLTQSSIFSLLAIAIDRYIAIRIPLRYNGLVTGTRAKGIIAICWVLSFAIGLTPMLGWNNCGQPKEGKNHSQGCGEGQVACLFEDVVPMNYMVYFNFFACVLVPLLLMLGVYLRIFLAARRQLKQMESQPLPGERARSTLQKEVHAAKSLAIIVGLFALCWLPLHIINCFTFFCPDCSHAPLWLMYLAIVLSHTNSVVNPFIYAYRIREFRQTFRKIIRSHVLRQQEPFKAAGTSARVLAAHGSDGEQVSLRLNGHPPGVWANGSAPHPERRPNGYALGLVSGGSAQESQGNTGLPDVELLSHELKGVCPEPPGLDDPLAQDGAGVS

human A3AR [1] = molecular target: T2, human A3AR (Homo sapiens, UniProt P0DMS8); assay: Radioligand binding at human A3AR; details: human ARs
T2 sequence (P0DMS8 1-318): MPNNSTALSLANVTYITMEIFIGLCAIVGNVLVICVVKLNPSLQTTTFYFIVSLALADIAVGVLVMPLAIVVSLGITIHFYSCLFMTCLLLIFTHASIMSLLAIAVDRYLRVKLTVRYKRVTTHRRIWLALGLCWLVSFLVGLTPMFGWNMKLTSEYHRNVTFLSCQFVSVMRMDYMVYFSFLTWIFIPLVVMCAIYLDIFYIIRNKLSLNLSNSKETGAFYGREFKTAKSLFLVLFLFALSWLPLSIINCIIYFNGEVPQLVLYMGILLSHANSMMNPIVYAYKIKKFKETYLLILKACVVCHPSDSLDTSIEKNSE

human A3AR [2] = molecular target: T2, human A3AR; details: cited from earlier work
human P2Y14 receptor = molecular target: T3, human P2Y14 receptor (Homo sapiens, UniProt Q15391); details: read-out: Potency at the P2Y14 receptor in the same assay; C6 cells expressing the human P2Y14 receptor; cited from earlier work
T3 sequence (Q15391 1-338): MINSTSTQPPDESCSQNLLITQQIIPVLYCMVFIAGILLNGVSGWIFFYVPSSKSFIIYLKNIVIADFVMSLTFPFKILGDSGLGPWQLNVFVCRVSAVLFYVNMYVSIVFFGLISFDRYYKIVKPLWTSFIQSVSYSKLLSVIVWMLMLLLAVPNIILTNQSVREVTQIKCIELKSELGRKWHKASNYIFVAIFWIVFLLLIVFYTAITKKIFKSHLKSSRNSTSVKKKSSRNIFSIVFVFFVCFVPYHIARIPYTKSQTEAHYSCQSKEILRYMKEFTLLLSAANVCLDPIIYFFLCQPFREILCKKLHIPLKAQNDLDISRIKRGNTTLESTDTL

SMILES | % inhibition of radioligand binding A1 (human A1AR) | Ki (human A2AAR) | Selectivity for the A3AR in comparison to the A1AR (human A3AR [1]) | Selectivity for the A3AR (human A3AR [2]) | EC50 (human P2Y14 receptor)
C#CCCCCC#Cc1nc(NCc2cccc(Cl)c2)c2ncn([C@H]3[C@H](O)[C@H](O)[C@]4(C(=O)NC)C[C@H]34)c2n1 [Compound 3a] | (31±2%) at 10 μM |  |  |  | 
CNC(=O)[C@@]12C[C@@H]1[C@@H](n1cnc3c(NCc4cccc(Cl)c4)nc(Cl)nc31)[C@H](O)[C@@H]2O [Compound 2] |  | 2300 ± 100 nM |  |  | 
CNC(=O)[C@@]12C[C@@H]1[C@@H](n1cnc3c(NCc4cccc(Cl)c4)nc(C#CCCCCc4cn(CCNC(C)=O)nn4)nc31)[C@H](O)[C@@H]2O [Compound 4a] | (12±4%) at 10 μM | 2440 ± 320 nM | > 500 fold | at least 100 fold | 
O=C(O)[C@H]1O[C@H](OP(=O)(O)OP(=O)(O)OC[C@H]2O[C@@H](n3ccc(=O)[nH]c3=O)[C@H](O)[C@@H]2O)[C@H](O)[C@@H](O)[C@@H]1O [UDPGA, uridine-5′-diphosphoglucuronic acid] |  |  |  |  | 200 to 300 nM
